US6861555B2, “Calcium dicarboxylate ethers, methods of making same, and treatment of vascular disease and diabetes therewith” (Warner-Lambert Company, priority 2000, dated 2005)
Counter-ions that a name gives are not always drawn. Values belong to the compound of their own block, whether it stands above or below them.

Columns and labels:
[1] = Bulk density (loose and tapped) of CI-1027 lots; conditions: for Bulk Density Loose / Bulk Density Tapped: per lot
[2] = Salt form and hygroscopic status: comparison of salts of 72953; format: physicochemical; conditions: after complete drying
From the text: Following the general procedure of Example 1, 72953 was reacted with sodium hydroxide, potassium hydroxide, and acetylcholine in stoichiometric ratios of 1:1 per dialkanoic acid molecule, and 2:1 per dialkanoic acid molecule. The properties of the solids thus prepared, following complete drying, were compared to the calcium salt (CI-1027) from Example 1.

[3] = Observed electrostatic charge retention of bulk product; format: physicochemical; conditions: compared with amorphous product / salts dried without humidification
From the text: Additional analysis on the post-humidification dried dialkylcarboxylic acid ether monocalcium salt (II) is indicative of the formation of a salt which is associated with between about 0.1 and about 1 molar equivalent of water per equivalent of dialkylcarboxylic acid ether calcium salt (II), as shorn in FIGS. 1 and 15, for example.

plasma proteins = assay: In vitro binding to plasma proteins; format: in vitro ADME
[4] = Pharmacokinetics of CI-1027 in dog; format: in vivo
[5] = system: Lp(a) and other lipoprotein parameters; assay: Effects on Lp(a) and other lipoprotein parameters, oral gavage for 2 weeks, monkeys; format: in vivo, Cynomolgus macaque monkeys
Procedure: (§1) The effects of CI-1027 of Formula II, Crystalline Form 1, on Lp(a) and other lipoprotein parameters in two models of elevated Lp(a) were determined by the following in vivo assays
(§2) Cynomolgus macaque monkeys and Lp(a) transgenic mice are dosed with CI-1027 at 3, 10, 30, 100, or 300 mg/kg for 2 weeks by oral gavage. […] In the transgenic mouse study, female mice were allocated into five groups with equivalent Lp(a) levels, and dosed by oral gavage with either vehicle alone or vehicle plus CI-1027 (3, 10, 30, and 100 mg/kg/day). Blood is sampled weekly (2 weeks prior to treatment, 2 weeks on treatment).

[6] = Pharmacokinetics of CI-1027 in monkey; format: in vivo
rat hepatocytes = assay: In vitro metabolism in rat hepatocytes using radiolabeled compound; format: in vitro ADME
[7] = in vivo
Procedure: Metabolite profiling is performed by HPLC with radiometric detection and metabolites arc identified by LC/RAM/MS/MS.

[8] = Mean recovery of 14C dose in excreta, intact and bile-fistula cannulated monkeys; format: in vivo, monkey; conditions: 10 mg/kg
[9] = Pharmacokinetics of CI-1027 in rat; format: in vivo
[10] = Pharmacokinetics of CI-1027, species not stated; format: in vivo
monkey hepatocytes = assay: In vitro metabolism in monkey hepatocytes using radiolabeled compound; format: in vitro ADME
dog hepatocytes = assay: In vitro metabolism in dog hepatocytes using radiolabeled compound; format: in vitro ADME
[11] = Mean recovery of 14C dose in excreta, intact and bile-fistula cannulated rats; format: in vivo, rat; conditions: 10 mg/kg
[12] = system: Lp(a) and other lipoprotein parameters; assay: Effects on Lp(a) and other lipoprotein parameters, oral gavage, transgenic mouse study; format: in vivo, Lp(a) transgenic mice; design: maximum decrease in total plasma cholesterol: dose or concentration left out as unconfirmed
Procedure: as §1, §2

[13] = in vivo, other: intravenous (IV) and per orals (PO), intravenous (IV) and per orals (PO), read-out: apparent elimination half-life

Bulk Density Loose [1]: 0.280 g/mL
Bulk Density Tapped [1]: 0.315 g/mL
Compound: CC(C)(CCCCOCCCCC(C)(C)C(=O)[O-])C(=O)[O-].[Ca+2] [CD-3055]

Bulk Density Loose [1]: 0.218 g/mL
Bulk Density Tapped [1]: 0.264 g/mL
Compound: CC(C)(CCCCOCCCCC(C)(C)C(=O)[O-])C(=O)[O-].[Ca+2] [CD-3111]

Bulk Density Loose [1]: 0.242 g/mL
Bulk Density Tapped [1]: 0.379 g/mL
Compound: CC(C)(CCCCOCCCCC(C)(C)C(=O)[O-])C(=O)[O-].[Ca+2] [CD-3135]

In vitro binding to plasma proteins (plasma proteins): species and concentration dependent
primary binding protein (plasma proteins): Albumin
absorption [4]: rapidly absorbed
half-life [4, 13]: 1020 to 1860 min
absorption [6]: rapidly absorbed
half-life [6, 13]: 540 to 900 min
metabolite detected in bile and urine [7]: acyl-glucuronide is detected
share of plasma radioactivity that was unchanged drug [7]: ~100%
Mean recovery in bile ([8]; Fistula Monkey): 42.0 percent ^14C dose
Mean recovery in feces ([8]; Fistula Monkey): 3.82 percent ^14C dose
Mean recovery in urine ([8]; Fistula Monkey): 62.2 percent ^14C dose
Mean total recovery ([8]; Fistula Monkey): 108 percent ^14C dose
Mean recovery in feces ([8]; Monkey (intact)): 17.3 percent ^14C dose
Mean recovery in urine ([8]; Monkey (intact)): 78.1 percent ^14C dose
Mean total recovery ([8]; Monkey (intact)): 95.4 percent ^14C dose
absorption [9]: rapidly absorbed
half-life [9, 13]: 300 to 420 min
Oral bioavailability [10]: appeared to be high
linearity of pharmacokinetics [10]: nonlinear
Mean recovery in bile ([11]; Fistula Rat): 87.5 percent ^14C dose
Mean recovery in feces ([11]; Fistula Rat): 0.72 percent ^14C dose
Mean recovery in urine ([11]; Fistula Rat): 10.5 percent ^14C dose
Mean total recovery ([11]; Fistula Rat): 98.7 percent ^14C dose
Mean recovery in feces ([11]; Intact Rat): 56.9 percent ^14C dose
Mean recovery in urine ([11]; Intact Rat): 37.0 percent ^14C dose
Mean total recovery ([11]; Intact Rat): 93.9 percent ^14C dose
Compound: CC(C)(CCCCOCCCCC(C)(C)C(=O)[O-])C(=O)[O-].[Ca+2] [CI-1027, 6-(5-carboxy-5-methyl-hexyloxy)-2,2-dimethylhexanoic acid monocalcium salt (1:1)]
Lp(a) lowering ([5]; 3 mg/kg/day): −9%
Lp(a) lowering ([5]; 10 mg/kg/day): −23%
Lp(a) lowering ([5]; 30 mg/kg/day): −64%
Lp(a) lowering ([5]; 100 mg/kg/day): −68%
Lp(a) lowering ([5]; 300 mg/kg/day): −87%
HDL cholesterol ([5]; 3-300 mg/kg): decreased
total plasma cholesterol ([5]; 3-300 mg/kg): decreased
14C peaks found in hepatocyte incubation (rat hepatocytes): two major ^14C peaks, intact drug, and a glucuronide conjugate
enterohepatic recirculation [10]: seemed to undergo enterohepatic recirculation
14C peaks found in hepatocyte incubation (monkey hepatocytes): two major ^14C peaks, intact drug, and a glucuronide conjugate
14C peaks found in hepatocyte incubation (dog hepatocytes): two major ^14C peaks, intact drug, and a glucuronide conjugate
decrease in plasma Lp(a) compared to mice dosed with vehicle alone ([12]; female mice, 3 mg/kg/day oral gavage, after 1 week): −15%
decrease in plasma Lp(a) compared to mice dosed with vehicle alone ([12]; female mice, 10 mg/kg/day oral gavage, after 1 week): −41%
decrease in plasma Lp(a) compared to mice dosed with vehicle alone ([12]; female mice, 30 mg/kg/day oral gavage, after 1 week): −54%
decrease in plasma Lp(a) compared to mice dosed with vehicle alone ([12]; female mice, 100 mg/kg/day oral gavage, after 1 week): −61%
HDL cholesterol (lipoprotein profiles by HPLC) ([12]; female mice, after 1 week): remained unchanged
LDL cholesterol (lipoprotein profiles by HPLC) ([12]; female mice, after 1 week): significant decreases
decrease in plasma apoB ([12]; female mice, after 1 week): up to 30%
maximum decrease in total plasma cholesterol ([12]; female mice, after 1 week): 32%
ratio of HDL cholesterol to VLDL+LDL cholesterol ([12]; with treatment, control value 0.39): 0.65

Bulk Density Loose [1]: 0.343 g/mL
Bulk Density Tapped [1]: 0.484 g/mL
Compound: CC(C)(CCCCOCCCCC(C)(C)C(=O)[O-])C(=O)[O-].[Ca+2] [CD-3103]

Bulk Density Loose [1]: 0.215 g/mL
Bulk Density Tapped [1]: 0.270 g/mL
Compound: CC(C)(CCCCOCCCCC(C)(C)C(=O)[O-])C(=O)[O-].[Ca+2] [CD-3102]

Bulk Density Loose [1]: 0.234 g/mL
Bulk Density Tapped [1]: 0.337 g/mL
Compound: CC(C)(CCCCOCCCCC(C)(C)C(=O)[O-])C(=O)[O-].[Ca+2] [CD-3082]

Bulk Density Loose [1]: 0.235 g/mL
Bulk Density Tapped [1]: 0.300 g/mL
Compound: CC(C)(CCCCOCCCCC(C)(C)C(=O)[O-])C(=O)[O-].[Ca+2] [CD-3243]

More lines, now with the values behind:

Compound: CC(C)(CCCCOCCCCC(C)(C)C(=O)[O-])C(=O)[O-].[Ca+2] [listing 1 of 2 here]
Bulk Density Loose [1]: 0.336 g/mL
Bulk Density Tapped [1]: 0.439 g/mL

Compound: CC(C)(CCCCOCCCCC(C)(C)C(=O)[O-])C(=O)[O-].[Ca+2] [listing 2 of 2 here]
bulk density, average ([1]; amorphous form): about 0.3 gm/mL

Compound: CC(C)(CCCCOCCCCC(C)(C)C(=O)[O-])C(=O)[O-].[Ca+2] [CD-3221A]
Bulk Density Loose [1]: 0.372 g/mL
Bulk Density Tapped [1]: 0.521 g/mL

Compound: CC(C)(CCCCOCCCCC(C)(C)C(=O)[O-])C(=O)[O-].[Na+].[Na+] [di-sodium]
Physical Form [2]: Solid
Physical Properties of Solid (hygroscopic status) [2]: Very Hygroscopic

Compound: CC(C)(CCCCOCCCCC(C)(C)C(=O)[O-])C(=O)[O-].[K+].[K+] [di-potassium]
Physical Form [2]: Solid
Physical Properties of Solid (hygroscopic status) [2]: Very Hygroscopic

Compound: 6-(5-carboxy-5-methyl-hexyloxy)-2,2-dimethylhexanoic acid monocalcium salt hydrate, Crystalline Form 1 [Example 1]
bulk density following tapping, average ([1]; highly crystalline salt after humidification process): about 0.4 g/mL

Compound: CC(C)(CCCCOCCCCC(C)(C)C(=O)[O-])C(=O)[O-].C[N+](C)(C)CCO.C[N+](C)(C)CCO [di-choline]
Physical Form [2]: Oil

Compound: CC(C)(CCCCOCCCCC(C)(C)C(=O)O)C(=O)O [Example 1, 6-(5-carboxy-5-methyl-hexyloxy)-2,2-dimethylhexanoic acid monocalcium salt hydrate, Crystalline Form 1]
Physical Properties of Solid (hygroscopic status) [2]: None to Slight Hygroscopic
electrostatic character of bulk product ([3]; listed as CI-1027 hydrate Crystalline Form 1): less electrostatic than the amorphous form
electrostatic character of bulk product ([3]; listed as Crystal Form 1): less capable of retaining an electrostatic charge

Compound: CC(C)(CCCCOCCCCC(C)(C)C(=O)O)C(=O)[O-].C[N+](C)(C)CCO [mono-choline]
Physical Form [2]: Oil

Compound: CC(C)(CCCCOCCCCC(C)(C)C(=O)O)C(=O)O [Example 12, 6-(5-carboxy-5-methyl-hexyloxy)-2,2-dimethylhexanoic acid monocalcium salt. Crystalline Form 2]
electrostatic character of bulk product ([3]; listed as Crystal Form 2, monocalcium salt): less capable of retaining an electrostatic charge
